Laboratory results from patent publication US4683240A, “Pharmaceutical composition containing an imidazolidinetrione derivative or pharmaceutically acceptable salt thereof” (Nippon Zoki Pharmaceutical Co., Ltd., priority 1985, dated 1987).
Read-outs that look alike come from different tables or passages of the source.

Tests used:
Format in all cases: in vivo, rat (Wistar-strain)
Blood Glucose = experiment: Hypoglycemic effect in glucose-loaded fasted rats (blood glucose); details: for inhibition in vivo at 100 mg/kg: Rattus norvegicus, vs control, read-out: Blood Glucose Decrease; for inhibition in vivo at 100 mg/kg / Blood Glucose Level: 100 mg/kg oral, 2 h
Description: Groups of 7 Wistar-strain male rats (weighing about 200 g) which were fasted for 18 hours were used for measurement of hypoglycemic effect according to the modified method by Dulin et al. [Dulin, W. L. et al., Proc. Soc. Expl. Med., 107, 245 (1961)]. That is, 0.5 ml/100 g of 20% aqueous solution of glucose was subcutaneously administered to the backs of rats to prevent a decrease in blood glucose level because of the fasting. Immediately thereafter the test drug suspended in 0.5% aqueous C.M.C. solution was orally given, and 2 hours later, the animals underwent laparotomy under pentobarbital anesthesia, then blood was drawn from the vena cava. The obtained blood sample was allowed to stand for 30 minutes to complete the coagulation and was centrifuged to obtain the serum. Blood sugar level was measured according to the mutalotase GOD method [Trinder, Ann. Clin. Biochem., 6, 24 […]]. Asterisks indicate significant differences (*: p<0.05, **: p<0.01, ***: p<0.001) from the control.

Serum Free Fatty Acid = experiment: Hypolipidemic effect: serum free fatty acid; details: 2 h
Description: (§1) The test drugs suspended in 0.5% aqueous C.M.C. solution were orally administered to groups of 8 Wistar-strain male rats (weighing about 185 g) which were fasted for 18 to 20 hours. 2 hours later, the serum was obtained in the same manner described in (2). Serum triglyceride was measured according to the GPO-p-chlorophenol colorimetric determination [Richard W. Spayd et al., Clinical Chemistry, 24, 1343 (1978)], serum free fatty acid was measured according to the Acyl CoA Synthetase-Acyl CoA Oxidase method [Shimizu S. et al., Biochem. Biophys. Res. Commun., 91, 108 (1979)], free fatty acid was measured according to the enzymatic method [Charles C. Allain et al., Clin. Chem., 20, No. 4, 470 (1974)] and total cholesterol was measured according to the enzymatic method [Takayama M. et al., Clinica Chimica Acta, 79, 93 (1977)]. Asterisks indicate significant differences (*: p<0.05, **: p<00.01, ***: p<0.001) from the control.

Serum Phospholipid = experiment: Hypolipidemic effect: serum phospholipid; details: 2 h
Description: as §1

Serum Triglyceride = experiment: Hypolipidemic effect: serum triglyceride; details: 2 h
Description: as §1

Total Serum Cholesterol = experiment: Hypolipidemic effect: total serum cholesterol; details: 2 h
Description: as §1

[1] = 100 mg/kg oral, control 0.53 ± 0.03 (compounds 2-12), 0.52 ± 0.03 (compounds 15-24)
[2] = Rattus norvegicus, 100 mg/kg oral, vs control, read-out: Serum Free Fatty Acid Decrease
[3] = 100 mg/kg oral, control 79 ± 2 (compounds 2-12), 72 ± 2 (compounds 15-29)
[4] = Rattus norvegicus, 100 mg/kg oral, vs control, read-out: Serum Phospholipid Decrease
[5] = 100 mg/kg oral, control 65 ± 5 (compounds 2-12), 57 ± 4 (compounds 15-29)
[6] = Rattus norvegicus, 100 mg/kg oral, vs control, read-out: Serum Triglyceride Decrease
[7] = 100 mg/kg oral, control 44 ± 2 (compounds 4-12), 41 ± 1 (compounds 15-29)
[8] = Rattus norvegicus, 100 mg/kg oral, vs control, read-out: Total Serum Cholesterol Decrease

SMILES | inhibition in vivo at 100 mg/kg (Blood Glucose; Table 2) | Blood Glucose Level (Blood Glucose; Table 2, control 133 ± 6) | Serum Phospholipid Level (Serum Phospholipid; [3]) | inhibition in vivo at 100 mg/kg (Serum Phospholipid; [4]) | Serum Triglyceride Level (Serum Triglyceride; [5]) | inhibition in vivo at 100 mg/kg (Serum Triglyceride; [6]) | Total Serum Cholesterol Level (Total Serum Cholesterol; [7]) | inhibition in vivo at 100 mg/kg (Total Serum Cholesterol; [8]) | inhibition in vivo at 100 mg/kg (Blood Glucose; Table 3) | Blood Glucose Level (Blood Glucose; Table 3, control 133 ± 4) | other results
CCCCNC(=O)NS(=O)(=O)c1ccc(C)cc1 [Tolubutamide, reference compound] | 63.9% | 48 ± 1 mg/dL |  |  |  |  |  |  |  |  | Blood sugar effect (in words) (Blood Glucose; oral, rats): excessive hypoglycemia; Serum Free Fatty Acid Level (Serum Free Fatty Acid; 50 mg/kg oral, control 0.53 ± 0.03): 0.44 ± 0.02 mEq/l; inhibition in vivo at 50 mg/kg (Serum Free Fatty Acid; Rattus norvegicus, 50 mg/kg oral, vs control, read-out: Serum Free Fatty Acid Decrease): 15.7%; Serum Phospholipid Level (Serum Phospholipid; 50 mg/kg oral, control 79 ± 2): 75 ± 2 mg/dL; inhibition in vivo at 50 mg/kg (Serum Phospholipid; Rattus norvegicus, 50 mg/kg oral, vs control, read-out: Serum Phospholipid Decrease): 5.1%; Serum Triglyceride Level (Serum Triglyceride; 50 mg/kg oral, control 65 ± 5): 53 ± 4 mg/dL; inhibition in vivo at 50 mg/kg (Serum Triglyceride; Rattus norvegicus, 50 mg/kg oral, vs control, read-out: Serum Triglyceride Decrease): 18.5%; Total Serum Cholesterol Level (Total Serum Cholesterol; 50 mg/kg oral, control 44 ± 2): 46 ± 1 mg/dL; inhibition in vivo at 50 mg/kg (Total Serum Cholesterol; Rattus norvegicus, 50 mg/kg oral, vs control, read-out: Total Serum Cholesterol Decrease): -4.5%
CCCCN1C(=O)NC(=O)C1=O [compound 4, 1-butylimidazolidinetrione] | 33.8% | 88 ± 7 mg/dL | 58 ± 1 mg/dL | 26.6% | 23 ± 1 mg/dL | 64.6% | 39 ± 1 mg/dL | 11.4% |  |  | Serum Free Fatty Acid Level (Serum Free Fatty Acid; [1]): 0.27 ± 0.02 mEq/l; inhibition in vivo at 100 mg/kg (Serum Free Fatty Acid; [2]): 49.1%
CC(C)CN1C(=O)NC(=O)C1=O [compound 5, 1-iso-butylimidazolidinetrione] | 39.1% | 81 ± 1 mg/dL |  |  |  |  |  |  |  |  | 
CC(C)(C)N1C(=O)NC(=O)C1=O [compound 6, 1-tert-butylimidazolidinetrione] | 18% | 109 ± 4 mg/dL |  |  |  |  |  |  |  |  | 
CCCCCCN1C(=O)NC(=O)C1=O [compound 7, 1-hexylimidazolidinetrione] | 23.3% | 102 ± 6 mg/dL | 66 ± 2 mg/dL | 16.5% | 38 ± 3 mg/dL | 41.5% |  |  |  |  | 
CCCCCCCCCCN1C(=O)NC(=O)C1=O [compound 9, 1-decylimidazolidinetrione] | 18% | 109 ± 4 mg/dL |  |  |  |  |  |  |  |  | 
O=C1NC(=O)N(C2CCCC2)C1=O [compound 10, 1-cyclopentylimidazolidinetrione] | 24.8% | 100 ± 4 mg/dL |  |  |  |  |  |  |  |  | 
O=C1NC(=O)N(C2CCCCC2)C1=O [compound 11, 1-cyclohexylimidazolidinetrione] | 24.1% | 101 ± 2 mg/dL | 60 ± 2 mg/dL | 24.1% | 27 ± 1 mg/dL | 58.5% | 39 ± 1 mg/dL | 11.4% |  |  | Serum Free Fatty Acid Level (Serum Free Fatty Acid; [1]): 0.34 ± 0.01 mEq/l; inhibition in vivo at 100 mg/kg (Serum Free Fatty Acid; [2]): 35.8%
CCN1C(=O)C(=O)N(C2CCCC2)C1=O [compound 13, 1-cyclopentyl-3-ethylimidazolidinetrione] | 14.7% | 116 ± 5 mg/dL |  |  |  |  |  |  |  |  | 
O=C1NC(=O)N(Cc2ccccc2F)C1=O [compound 16, 1-(2-fluorobenzyl)imidazolidinetrione] |  |  | 54 ± 1 mg/dL | 25% | 30 ± 1 mg/dL | 47.4% | 33 ± 2 mg/dL | 19.5% | 11.3% | 118 ± 4 mg/dL | 
O=C1NC(=O)N(Cc2cccc(F)c2)C1=O [compound 17, 1-(3-fluorobenzyl)imidazolidinetrione] |  |  | 58 ± 1 mg/dL | 19.4% | 30 ± 1 mg/dL | 47.4% | 37 ± 1 mg/dL | 9.8% | 13.5% | 115 ± 2 mg/dL | 
O=C1NC(=O)N(Cc2ccc(Br)cc2)C1=O [compound 21, 1-(4-bromobenzyl)imidazolidinetrione] |  |  | 57 ± 1 mg/dL | 20.8% | 35 ± 2 mg/dL | 38.6% | 36 ± 1 mg/dL | 12.2% |  |  | Serum Free Fatty Acid Level (Serum Free Fatty Acid; [1]): 0.44 ± 0.02 mEq/l; inhibition in vivo at 100 mg/kg (Serum Free Fatty Acid; [2]): 15.2%
O=C1NC(=O)N(Cc2ccc([N+](=O)[O-])cc2)C1=O [compound 23, 1-(4-nitrobenzyl)imidazolidinetrione] |  |  | 65 ± 2 mg/dL | 9.7% | 38 ± 2 mg/dL | 33.3% |  |  | 12% | 117 ± 3 mg/dL | 
Cc1cccc(CN2C(=O)NC(=O)C2=O)c1 [compound 25, 1-(3-methylbenzyl)imidazolidinetrione] |  |  | 57 ± 2 mg/dL | 20.8% | 33 ± 2 mg/dL | 42.1% | 36 ± 1 mg/dL | 12.2% | 13.5% | 115 ± 3 mg/dL | 
Cc1ccc(CN2C(=O)NC(=O)C2=O)cc1 [compound 26, 1-(4-methylbenzyl)imidazolidinetrione] |  |  | 58 ± 1 mg/dL | 19.4% | 37 ± 1 mg/dL | 35.1% | 37 ± 1 mg/dL | 9.8% | 9.8% | 120 ± 2 mg/dL | 
COc1ccc(CN2C(=O)NC(=O)C2=O)cc1 [compound 29, 1-(4-methoxybenzyl)imidazolidinetrione] |  |  | 58 ± 1 mg/dL | 19.4% | 43 ± 3 mg/dL | 24.6% | 36 ± 1 mg/dL | 12.2% | 9.8% | 120 ± 2 mg/dL | 
